# Assay results reported in PubChem BioAssay (NCI).
#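 Abbreviation: GI50, concentration required for 50% inhibition of growth. TGI denotes the concentration required for complete inhibition of growth.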
# How the values were obtained:
# Test in all cases: inhibition of tumour cell growth, NCI panel, 384-well format
# SK-MEL-5 melanoma = system: SK-MEL-5 melanoma
# COLO 205 colon = system: COLO 205 colon
# PC-3 prostate = system: PC-3 prostate
# NCI-H23 lung = system: NCI-H23 lung
# A549 NSCLC = system: A549 NSCLC
# T-47D breast = system: T-47D breast
# LOX IMVI melanoma = system: LOX IMVI melanoma
# M14 melanoma = system: M14 melanoma
# KM12 colon = system: KM12 colon
# MCF7 breast = system: MCF7 breast
# SN12C renal = system: SN12C renal
# NCI-H226 lung = system: NCI-H226 lung
# OVCAR-4 ovarian = system: OVCAR-4 ovarian
# MDA-MB-231 breast = system: MDA-MB-231 breast
# MDA-MB-468 breast = system: MDA-MB-468 breast
# RXF 393 renal = system: RXF 393 renal
# HS 578T breast = system: HS 578T breast
# MALME-3M melanoma = system: MALME-3M melanoma
# HCT-116 colon = system: HCT-116 colon
# SF-539 CNS = system: SF-539 CNS
# NCI-H322M lung = system: NCI-H322M lung
# HOP-92 NSCLC = system: HOP-92 NSCLC
# SR leukemia = system: SR leukemia
# K-562 leukemia = system: K-562 leukemia
# OVCAR-5 ovarian = system: OVCAR-5 ovarian
# SK-MEL-28 melanoma = system: SK-MEL-28 melanoma
# HOP-62 NSCLC = system: HOP-62 NSCLC
# BT-549 breast = system: BT-549 breast
# UACC-257 melanoma = system: UACC-257 melanoma
# MDA-MB-435 melanoma = system: MDA-MB-435 melanoma
# EKVX NSCLC = system: EKVX NSCLC
# NCI/ADR-RES ovarian = system: NCI/ADR-RES ovarian
# CCRF-CEM leukemia = system: CCRF-CEM leukemia
# A498 renal = system: A498 renal
# CAKI-1 renal = system: CAKI-1 renal
# SF-268 CNS = system: SF-268 CNS
# HCT-15 colon = system: HCT-15 colon
# SF-295 CNS = system: SF-295 CNS
# UO-31 renal = system: UO-31 renal
# OVCAR-8 ovarian = system: OVCAR-8 ovarian
# ACHN renal = system: ACHN renal
# HL-60(TB) leukemia = system: HL-60(TB) leukemia
# NCI-H460 NSCLC = system: NCI-H460 NSCLC
# HT29 colon = system: HT29 colon
# SK-OV-3 ovarian = system: SK-OV-3 ovarian
# NCI-H522 lung = system: NCI-H522 lung
# HCC-2998 colon = system: HCC-2998 colon
smiles,measurement,setting,value
Cc1cc(-c2nc(C(=O)Nc3cc4oc(N5CCOCC5)nc4nc3N3CC[C@@H](O)C3)co2)ccn1,GI50,SK-MEL-5 melanoma,11.6 µM
same,TGI,SK-MEL-5 melanoma,59 µM
same,GI50,COLO 205 colon,20.4 µM
same,TGI,COLO 205 colon,50.2 µM
same,GI50,PC-3 prostate,35.8 µM
same,TGI,PC-3 prostate,> 100 µM
same,GI50,NCI-H23 lung,13.1 µM
same,TGI,NCI-H23 lung,47.5 µM
same,GI50,A549 NSCLC,32.3 µM
same,TGI,A549 NSCLC,> 100 µM
same,GI50,T-47D breast,11.8 µM
same,TGI,T-47D breast,88 µM
same,GI50,LOX IMVI melanoma,39.3 µM
same,TGI,LOX IMVI melanoma,> 100 µM
same,GI50,M14 melanoma,27.9 µM
same,TGI,M14 melanoma,> 100 µM
same,GI50,KM12 colon,0.424 µM
same,TGI,KM12 colon,> 100 µM
same,GI50,MCF7 breast,16.5 µM
same,TGI,MCF7 breast,> 100 µM
same,GI50,SN12C renal,21.5 µM
same,TGI,SN12C renal,> 100 µM
same,GI50,NCI-H226 lung,81.2 µM
same,TGI,NCI-H226 lung,> 100 µM
same,GI50,OVCAR-4 ovarian,36.9 µM
same,TGI,OVCAR-4 ovarian,> 100 µM
same,GI50,MDA-MB-231 breast,36.9 µM
same,TGI,MDA-MB-231 breast,> 100 µM
same,GI50,MDA-MB-468 breast,8.63 µM
same,TGI,MDA-MB-468 breast,33.1 µM
same,GI50,RXF 393 renal,12 µM
same,TGI,RXF 393 renal,64.1 µM
same,GI50,HS 578T breast,2.37 µM
same,TGI,HS 578T breast,23.4 µM
same,GI50,MALME-3M melanoma,19.4 µM
same,TGI,MALME-3M melanoma,> 100 µM
same,GI50,HCT-116 colon,19.4 µM
same,TGI,HCT-116 colon,> 100 µM
same,GI50,SF-539 CNS,23.2 µM
same,TGI,SF-539 CNS,> 100 µM
same,GI50,NCI-H322M lung,30.1 µM
same,TGI,NCI-H322M lung,> 100 µM
same,GI50,HOP-92 NSCLC,27.3 µM
same,TGI,HOP-92 NSCLC,> 100 µM
same,GI50,SR leukemia,18 µM
same,TGI,SR leukemia,37.3 µM
same,GI50,K-562 leukemia,34.9 µM
same,TGI,K-562 leukemia,> 100 µM
same,GI50,OVCAR-5 ovarian,46 µM
same,TGI,OVCAR-5 ovarian,> 100 µM
same,GI50,SK-MEL-28 melanoma,49.6 µM
same,TGI,SK-MEL-28 melanoma,> 100 µM
same,GI50,HOP-62 NSCLC,15.3 µM
same,TGI,HOP-62 NSCLC,> 100 µM
same,GI50,BT-549 breast,16.3 µM
same,TGI,BT-549 breast,82.1 µM
same,GI50,UACC-257 melanoma,37.5 µM
same,TGI,UACC-257 melanoma,> 100 µM
same,GI50,MDA-MB-435 melanoma,29.3 µM
same,TGI,MDA-MB-435 melanoma,> 100 µM
same,GI50,EKVX NSCLC,14.2 µM
same,TGI,EKVX NSCLC,71.2 µM
same,GI50,NCI/ADR-RES ovarian,> 100 µM
same,TGI,NCI/ADR-RES ovarian,> 100 µM
same,GI50,CCRF-CEM leukemia,21.4 µM
same,TGI,CCRF-CEM leukemia,62.2 µM
same,GI50,A498 renal,12.3 µM
same,TGI,A498 renal,> 100 µM
same,GI50,CAKI-1 renal,8.01 µM
same,TGI,CAKI-1 renal,38.3 µM
same,GI50,SF-268 CNS,54.2 µM
same,TGI,SF-268 CNS,> 100 µM
same,GI50,HCT-15 colon,20.2 µM
same,TGI,HCT-15 colon,> 100 µM
same,GI50,SF-295 CNS,53.7 µM
same,TGI,SF-295 CNS,> 100 µM
same,GI50,UO-31 renal,33.5 µM
same,TGI,UO-31 renal,> 100 µM
same,GI50,OVCAR-8 ovarian,38.1 µM
same,TGI,OVCAR-8 ovarian,> 100 µM
same,GI50,ACHN renal,19.8 µM
same,TGI,ACHN renal,> 100 µM
same,GI50,HL-60(TB) leukemia,17.7 µM
same,TGI,HL-60(TB) leukemia,44.2 µM
same,GI50,NCI-H460 NSCLC,29.8 µM
same,TGI,NCI-H460 NSCLC,> 100 µM
same,GI50,HT29 colon,> 100 µM
same,TGI,HT29 colon,> 100 µM
same,GI50,SK-OV-3 ovarian,8.43 µM
same,TGI,SK-OV-3 ovarian,44.1 µM
same,GI50,NCI-H522 lung,4.32 µM
same,TGI,NCI-H522 lung,22.7 µM
same,GI50,HCC-2998 colon,21.2 µM
same,TGI,HCC-2998 colon,> 100 µM
